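Cells were grown in 96-well plates and exposed to each compound for 48 hours at five concentrations; endpoints were interpolated linearly between bracketing concentrations, or set to the highest concentration if not reached. GI50 = concentration required for 50% inhibition of growth. TGI marks complete inhibition of growth.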
Legend:
Assay in all cases: NCI anticancer screen, dose series, 48 h
A549 NSCLC = test system: A549 NSCLC
UACC-62 melanoma = test system: UACC-62 melanoma
MALME-3M melanoma = test system: MALME-3M melanoma
NCI-H460 lung = test system: NCI-H460 lung
NCI/ADR-RES ovarian = test system: NCI/ADR-RES ovarian
SR leukemia = test system: SR leukemia
SF-295 CNS = test system: SF-295 CNS
MOLT-4 leukemia = test system: MOLT-4 leukemia
M14 melanoma = test system: M14 melanoma
T-47D breast = test system: T-47D breast

SMILES	TGI (A549 NSCLC)	TGI (UACC-62 melanoma)	TGI (MALME-3M melanoma)	TGI (NCI-H460 lung)	TGI (NCI/ADR-RES ovarian)	TGI (SR leukemia)	TGI (SF-295 CNS)	TGI (MOLT-4 leukemia)	TGI (M14 melanoma)	GI50 (A549 NSCLC)	GI50 (UACC-62 melanoma)	GI50 (MALME-3M melanoma)	GI50 (NCI-H460 lung)	GI50 (NCI/ADR-RES ovarian)	GI50 (T-47D breast)	TGI (T-47D breast)	GI50 (SF-295 CNS)	GI50 (MOLT-4 leukemia)	GI50 (M14 melanoma)	GI50 (SR leukemia)
O=C(O)/C=C/C(=O)N1C/C(=C\c2ccccc2)C(=O)/C(=C/c2ccccc2)C1	52 µM	8.7 µM	12.3 µM	30.8 µM	61.7 µM	41.6 µM	11.8 µM	9.26 µM	11.9 µM	–	–	–	–	–	–	–	–	–	–	–
CC12Oc3ccc4ccccc4c3CC1Cc1c(ccc3ccccc13)O2 (stereo not given)	> 100 µM	–	17 µM	> 100 µM	–	–	> 100 µM	–	> 100 µM	–	–	–	–	–	–	–	–	–	–	–
O=C(O)CCSC(=O)Nc1ccc(N=Nc2ccccc2)cc1	> 100 µM	> 100 µM	> 100 µM	> 100 µM	–	> 100 µM	> 100 µM	> 100 µM	> 100 µM	–	–	–	–	–	–	–	–	–	–	–
COc1cc2c3c(n(CCCN=[N+]=[N-])c(=O)c2cc1OC)-c1ccc(N(C)C)cc1C3=O	> 100 µM	> 100 µM	> 100 µM	> 100 µM	> 100 µM	–	> 100 µM	> 100 µM	> 100 µM	> 100 µM	> 100 µM	> 100 µM	> 100 µM	> 100 µM	> 100 µM	> 100 µM	> 100 µM	> 100 µM	> 100 µM	–
COc1cc2c(c(OC3OC(CO)C(O)C(O)C3O)c1)C(=O)CC(c1ccc(O)cc1)O2 (stereo not given)	> 100 µM	> 100 µM	–	> 100 µM	> 100 µM	> 100 µM	> 100 µM	> 100 µM	> 100 µM	–	–	–	–	–	–	> 100 µM	–	–	–	–
CN(C)C(=S)/N=c1\ss/c(=N\S(=O)(=O)c2ccccc2)n1N(C)C	> 100 µM	> 100 µM	> 100 µM	> 100 µM	–	> 100 µM	–	> 100 µM	> 100 µM	–	–	–	–	–	–	–	–	–	–	–
c1ccc2c(c1)C1=NCCN1c1ccccc1-2	27.1 µM	13 µM	6.77 µM	4 µM	–	2.41 µM	31.4 µM	8.99 µM	13.3 µM	–	–	–	–	–	–	–	–	–	–	–
CCC(Oc1ccc(OC)c2ccccc(=O)c12)C(=O)O (stereo not given)	> 100 µM	> 100 µM	> 100 µM	> 100 µM	–	> 100 µM	> 100 µM	> 100 µM	> 100 µM	–	–	–	–	–	–	–	–	–	–	–
O=C(NS(=O)(=O)c1ccccc1)C(Cc1ccccc1)C(Cc1ccccc1)C(=O)NS(=O)(=O)c1ccccc1 (stereo not given)	> 100 µM	> 100 µM	> 100 µM	> 100 µM	–	> 100 µM	> 100 µM	> 100 µM	> 100 µM	–	–	–	–	–	–	–	–	–	–	–
Cc1cccc(Nc2cnc(N)nc2N)c1	> 100 µM	> 100 µM	> 100 µM	–	> 100 µM	–	> 100 µM	> 100 µM	> 100 µM	–	–	–	–	–	–	> 100 µM	–	–	–	–
CN1CC(=O)N(C)c2nc[nH]c2C1=O	> 100 µM	> 100 µM	> 100 µM	> 100 µM	–	> 100 µM	> 100 µM	> 100 µM	> 100 µM	–	–	–	–	–	–	–	–	–	–	–
COC(=O)CCC(=O)NC1C2CC3CC(C2)CC1C3 (stereo not given)	> 100 µM	> 100 µM	> 100 µM	> 100 µM	–	–	> 100 µM	> 100 µM	> 100 µM	–	–	–	–	–	–	–	–	–	–	–
COC1=C2CC(C)CC(OC)C(O)C(C)/C=C(\C)C(OC(N)=O)C(OC)/C=C\C=C(/C)C(=O)NC(=C(/C=N/N3CCCCC3)C1=O)C2=O (stereo not given)	46.7 µM	48.1 µM	28.7 µM	57.1 µM	–	7.48 µM	30.1 µM	7.39 µM	37.4 µM	–	–	–	–	–	–	–	–	–	–	–
Cc1cccc2nc3cccc(C(=O)NCCN(C)C)c3nc12	15.3 µM	2.42 µM	–	16.5 µM	–	–	14.3 µM	> 100 µM	2.36 µM	–	–	–	–	–	–	–	–	–	–	–
O=C1OC(OCC#CCOC2OC(=O)C(Cl)=C2Cl)C(Cl)=C1Cl (stereo not given)	38.9 µM	38.3 µM	–	58.9 µM	75.3 µM	4.99 µM	60.4 µM	6.17 µM	23.9 µM	–	–	–	–	–	–	36.7 µM	–	–	–	–
O=C1CC(c2ccc(Cl)cc2)Oc2ccccc21 (stereo not given)	–	49.8 µM	–	45.3 µM	50.6 µM	28 µM	> 100 µM	–	58.4 µM	–	–	–	–	–	–	> 100 µM	–	–	–	–
Cc1ccccc1-n1c(C)nc(-c2ccccc2)cc1=O	> 100 µM	> 100 µM	> 100 µM	> 100 µM	–	–	> 100 µM	> 100 µM	> 100 µM	–	–	–	–	–	–	–	–	–	–	–
O=C1C=CC(CC(=O)c2ccc3ccccc3c2)O1 (stereo not given)	> 100 µM	34.6 µM	> 100 µM	55.2 µM	–	83.1 µM	> 100 µM	65.6 µM	93.9 µM	–	–	–	–	–	–	–	–	–	–	–
C=C1[C@@H]([C@@]2(C)C=CC(=O)C(C)(C)[C@@H]2CC(=O)OC)CC[C@@]2(C)C(c3ccoc3)OC(=O)[C@H]3O[C@]132 (stereo not given in full)	> 100 µM	> 100 µM	> 100 µM	> 100 µM	> 100 µM	–	> 100 µM	> 100 µM	> 100 µM	–	–	–	–	–	–	> 100 µM	–	–	–	–
CCn1c2ccccc2c2cc(C(O)c3cccc4ncccc34)ccc21 (stereo not given)	> 49.4 µM	2.32 µM	–	4.61 µM	13.7 µM	–	22.1 µM	> 100 µM	> 100 µM	0.0684 µM	0.0443 µM	–	0.0388 µM	0.0396 µM	–	–	0.0335 µM	0.0633 µM	0.0468 µM	0.0248 µM
C[C@H]1C(=O)CC[C@]2(C)CCC(C(C)(C)O)CC12O (stereo not given in full)	> 100 µM	> 100 µM	> 100 µM	> 100 µM	–	> 100 µM	> 100 µM	> 100 µM	> 100 µM	–	–	–	–	–	–	–	–	–	–	–
CN(/N=N/c1nc(OCc2ccccc2)c2[nH]cnc2n1)C(=O)Oc1ccc([N+](=O)[O-])cc1	31.6 µM	15.2 µM	–	31.3 µM	–	> 50 µM	33.6 µM	–	18.4 µM	12 µM	7.5 µM	–	6.71 µM	–	14.2 µM	32.7 µM	11.1 µM	–	8.87 µM	26.1 µM
O=S(=O)(C/C(=N\O)c1ccccc1)c1ccccc1	> 100 µM	> 100 µM	> 100 µM	> 100 µM	–	–	> 100 µM	> 100 µM	> 100 µM	–	–	–	–	–	–	–	–	–	–	–
COc1ccc(Nc2c3ccccc3nc3[nH]c4ccccc4c23)cc1	> 50 µM	> 50 µM	–	> 50 µM	> 50 µM	> 50 µM	> 50 µM	> 50 µM	–	8.49 µM	16.2 µM	–	2.28 µM	18.9 µM	–	–	8.9 µM	2.35 µM	–	3.84 µM

— PubChem BioAssay (NCI)
